In ChEMBL document CHEMBL2146418, “Synthesis and comparison of antiplasmodial activity of (+), (-) and racemic 7-chloro-4-(N-lupinyl)aminoquinoline” (Bioorg Med Chem, 2012) one finds IC50 and selectivity ratio data, which are given here for 4 molecules.

Data set [1] in a line: Cytotoxicity against human HMEC1 cells after 72 hrs by MTT assay. Conditions: HMEC-1, 72 h. Format: cell-based.
Data set [2] is described as follows: Cytotoxicity against human HDF cells after 72 hrs by MTT assay. In kind it is cell-based.
In data set [3] the test system is Plasmodium falciparum. The data set is described as follows: Antiplasmodial activity against chloroquine-sensitive Plasmodium falciparum D10 infected in human RBC assessed as inhibition of parasite growth after 72 hrs by lactate dehydrogenase assay. In kind it is functional, organism-based. Conditions: D10, 72 h.
Data set [4] has as its system Plasmodium falciparum. In words: Antiplasmodial activity against chloroquine-resistant Plasmodium falciparum W2 infected in human RBC assessed as inhibition of parasite growth after 72 hrs by lactate dehydrogenase assay. Format: functional, organism-based. Conditions: W2, 72 h.
Data set [5] relates to Plasmodium falciparum. In words: Antiplasmodial activity against chloroquine-sensitive Plasmodium falciparum 3D7 infected in human RBC assessed as inhibition of parasite growth after 72 hrs by lactate dehydrogenase assay. Conditions: 3D7, 72 h. Format: functional, organism-based.
In data set [6] the test system is Plasmodium falciparum. The data set is described as follows: Antiplasmodial activity against chloroquine-resistant Plasmodium falciparum isolate Kenya after 72 hrs by lactate dehydrogenase assay. In kind it is functional, organism-based.
A short description of data set [7]: Therapeutic index, ratio of IC50 for human HMEC1 cells to IC50 for Plasmodium falciparum. Format: cell-based. Conditions: HMEC1 cells versus Plasmodium falciparum, read-out: Ratio IC50.

pIC50: −log10 of the molar value.

For `CCN(CC)CCCC(C)Nc1ccnc2cc(Cl)ccc12` (stereo not drawn) [CHLOROQUINE], the pIC50 in data set [1] and in data set [2] was < 4.42 in each case.

Turning to `Clc1ccc2c(NCC3CCCN4CCCCC34)ccnc2c1` (racemic), the pIC50 with Plasmodium falciparum [3] was 7.79; with Plasmodium falciparum [4] it was 7.45; in the data set with Plasmodium falciparum [5], 7.73; in data set [1] it was < 4.22; in the data set on Plasmodium falciparum [6], 7.71; in data set [2], 4.61. Moreover, the selectivity ratio in data set [7] is > 1000.

For `Clc1ccc2c(NC[C@H]3CCCN4CCCC[C@@H]34)ccnc2c1`, the pIC50 in the data set on Plasmodium falciparum [3] is 7.76; in the data set with Plasmodium falciparum [4], 7.45; in the data set with Plasmodium falciparum [5], 7.66; in data set [1], < 4.22; with Plasmodium falciparum [6] it was 7.72; in data set [2], 4.57. In data set [7], the selectivity ratio was > 1000.

Take `Clc1ccc2c(NC[C@@H]3CCCN4CCCC[C@H]34)ccnc2c1`: the negative-log IC50 (pIC50) is 7.62 in the data set on Plasmodium falciparum [3]; 7.27 with Plasmodium falciparum [4]; 7.55 in the data set on Plasmodium falciparum [5]; < 4.31 in data set [1]; 7.53 in the data set on Plasmodium falciparum [6]; 4.65 in data set [2]. Moreover, the selectivity ratio in data set [7] was > 1000.
